Results as given in patent publication US9708270B2, “Substituted spiropiperidinyl compounds useful as GPR120 agonists” (Merck Sharp & Dohme Corp., priority 2012, dated 2017).

The compounds below were run against human GPR120 (Homo sapiens (Human), UniProt Q5NUL3) (assay: FLIPR assay: intracellular calcium in CHO cells expressing human GPR120). Conditions: FLIPR calcium assay, CHO cells expressing human GPR120, agonist action.
Assay type: cell-based
Experimental: All compounds were tested under the FLIPR assay unless otherwise indicated.
Primers were synthesized in the domains on the opposite sides of the base sequences of the ORFs of the known GPCR and GPR120 in GenBank Accession NOs. […] The base sequences of the primers used are described below. The restriction enzymes, BamHI and EcoRI, recognition sites were introduced for subcloning, respectively.
As samples for PCR, human small intestine Marathon-ready cDNA (CLONTECH, current corporate name: TaKaRa) and cDMA obtained by reverse transcription of mouse BAT-derived RNA were used for human and mouse GPR120 receptor genes, respectively.
Using KOD Plus (TOYOBO) for PCR, 30 cycles of 94° C. for 2 minutes, 94° C. for 15 seconds, 55° C. for 30 seconds and 68° C. for 1 minute were carried out to effect reaction, followed by addition of 0.5 units of ExTaq (TaKaRa) and incubation at 72° C. for 10 minutes to carry out A-addition reaction to terminals. For mouse PCR, 35 cycles were carried out on the condition of a final DMSO concentration of 2%.
Cloning of amplified PCR products was carried out using pCR2.1-TOPO TA cloning kit (Invitrogen). For verification of base sequences, electrophoresis was carried out using BigDye Terminator Cycle Sequencing Ready Reaction Kit Ver.
The GPR120 receptor genes cloned into pCR2.1-TOPO vectors, into which the restriction enzymes, BamHI and EcoRI, recognition sites were introduced, were excised from the vectors by the enzymes and subcloned into the BamHI and EcoRI recognition sites of eukaryotic expression vector EF1/V5-His B (Invitrogen).
Test 2: Production of Expression Cells
Using Lipofectamine 2000 (Invitrogen), cDNA of GPR120 receptor was transfected into CHO/NFAT-BLA cells, and drug-resistant cells were isolated to obtain GPR120 stable expression strains. The GPR120-expressed CHO cells were cultured in DMEM/F12 medium containing 10% fetal bovine serum, 100 units/ml penicillin, 0.1 mg/ml streptomycin sulfate, 250 μg/ml Zeocin, 500 μg/mL Geneticin and 15 mM HEPES.
Test 3: Measurement of Intracellular Calcium Concentration
To the cells was added the test compound diluted with HBSS solution containing 20 mM HEPES and 2.5 mM probenecid. Variations in the intracellular calcium concentration were measured by Fluorescence Imaging Plate Reader (FLIPR; Molecular Devices) to examine the agonist action, and EC50 values were calculated. […]

human GPR120, sequence (Q5NUL3 whole entry): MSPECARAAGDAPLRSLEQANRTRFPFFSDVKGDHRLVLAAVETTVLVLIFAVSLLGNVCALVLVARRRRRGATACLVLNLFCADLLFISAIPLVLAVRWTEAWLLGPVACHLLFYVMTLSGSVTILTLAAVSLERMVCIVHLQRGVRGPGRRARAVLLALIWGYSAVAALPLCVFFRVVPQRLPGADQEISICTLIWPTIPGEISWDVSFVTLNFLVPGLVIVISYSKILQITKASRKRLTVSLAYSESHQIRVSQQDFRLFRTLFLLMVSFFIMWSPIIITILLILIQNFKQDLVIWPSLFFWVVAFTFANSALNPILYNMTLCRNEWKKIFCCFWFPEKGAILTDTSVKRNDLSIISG

| SMILES | EC50 |
| --- | --- |
| FC(F)(F)Oc1ccc(Cl)c(N2CCC3(CCC(Cc4nn[nH]n4)CO3)CC2)c1 (racemic) [Example 92, 3-((2H-tetrazol-5-yl)methyl)-9-(2-chloro-5-(trifluoromethoxy)phenyl)-1-oxa-9-azaspiro[5.5]undecane] | 2.63 µM |
| O=C(O)CC1COC2(CCN(c3cc(OC(F)(F)F)ccc3F)CC2)C1 (racemic) [Example 94, 2-(8-(2-fluoro-5-(trifluoromethoxy)phenyl)-1-oxa-8-azaspiro[4.5]decan-3-yl)acetic acid] | 1.48 µM |
| CC1CC(CC(=O)O)CCC12CCN(c1cc(OC(F)(F)F)ccc1Cl)CC2 (single isomer, unassigned) [Example 89a, 2-(3-(2-Chloro-5-(trifluoromethoxy)phenyl)-7-methyl-3-azaspiro[5.5]undecan-9-yl)acetic acid] | 2.76 µM |
| CC1CC(CC(=O)O)CCC12CCN(c1cc(OC(F)(F)F)ccc1Cl)CC2 (single isomer, unassigned) [Example 89b, 2-(3-(2-Chloro-5-(trifluoromethoxy)phenyl)-7-methyl-3-azaspiro[5.5]undecan-9-yl)acetic acid] | 3.13 µM |
| CC1CC(CC(=O)O)CCC12CCN(c1cc(OC(F)(F)F)ccc1Cl)CC2 (single isomer, unassigned) [Example 89c, 2-(3-(2-Chloro-5-(trifluoromethoxy)phenyl)-7-methyl-3-azaspiro[5.5]undecan-9-yl)acetic acid] | 2.49 µM |
| O=C(O)CC1CCC2(CCN(c3cc(OC(F)(F)F)ccc3Cl)CC2)OC1 (single isomer, unassigned) [Example 91A, (S)-2-(9-(2-chloro-5-(trifluoromethoxy)phenyl)-1-oxa-9-azaspiro[5.5]undecan-3-yl)acetic acid or (R)-2-(9-(2-chloro-5-(trifluoromethoxy)phenyl)-1-oxa-9-azaspiro[5.5]undecan-3-yl)acetic acid] | 0.636 µM |
| O=C(O)CC1CCC2(CCN(c3cc(OC(F)(F)F)ccc3Cl)CC2)OC1 (single isomer, unassigned) [Example 91B, (S)-2-(9-(2-chloro-5-(trifluoromethoxy)phenyl)-1-oxa-9-azaspiro[5.5]undecan-3-yl)acetic acid or (R)-2-(9-(2-chloro-5-(trifluoromethoxy)phenyl)-1-oxa-9-azaspiro[5.5]undecan-3-yl)acetic acid] | 1.02 µM |
| O=C(O)C[C@@H]1CCC2(CCN(c3cc(OC(F)(F)F)ccc3F)CC2)OC1 (single isomer, unassigned) [Example 93a, (R) or (S) 2-(9-(2-fluoro-5-(trifluoromethoxy)phenyl)-1-oxa-9-azaspiro[5.5]undecan-3-yl)acetic acid] | 1.3 µM |
| O=C(O)C[C@@H]1CCC2(CCN(c3cc(OC(F)(F)F)ccc3F)CC2)OC1 (single isomer, unassigned) [Example 93b, (R) or (S) 2-(9-(2-fluoro-5-(trifluoromethoxy)phenyl)-1-oxa-9-azaspiro[5.5]undecan-3-yl)acetic acid] | 0.75 µM |
| O=C(O)CC1CCC2(CC1)CCN(c1cc(C(F)(F)F)ccc1Cl)CC2 [Example 2, 2-(3-(2-chloro-5-(trifluoromethyl)phenyl)-3-azaspiro[5.5]undecan-9-y)acetic acid] | 0.9 µM |
| CC(C(=O)O)C1CCC2(CC1)CCN(c1cc(OC(F)(F)F)ccc1Cl)CC2 (centres unmarked) [Example 3, 2-(3-(2-chloro-5-(trifluoromethoxy)phenyl)-3-azaspiro[5.5]undecan-9-yl)propanoic acid] | 3.4 µM |
| O=C(O)CC1CCC2(CC1)CCN(c1cc(OC3CCCC3)ccc1Cl)CC2 [Example 5, 2-(3-(2-chloro-5-(cyclopentyloxy)phenyl)-3-azaspiro[5.5]undecan-9-yl)acetic acid] | 1.1 µM |
| COc1cc(F)c(N2CCC3(CCC(CC(=O)O)CC3)CC2)cc1F [Example 6] | 2.42 µM |
| O=C(O)CC1CCC2(CC1)CCN(c1cc(OC(F)(F)F)ccc1F)CC2 [Example 7] | 0.41 µM |
| COc1ccc(Cl)c(N2CCC3(CCC(CC(=O)O)CC3)CC2)c1 [Example 8] | 1.67 µM |
| Cc1ccc(Cl)c(N2CCC3(CCC(CC(=O)O)CC3)CC2)c1 [Example 9] | 2.18 µM |
| O=C(O)CC1CCC2(CC1)CCN(c1cc([N+](=O)[O-])ccc1Cl)CC2 [Example 10] | 1.7 µM |
| CC1(C)Cc2cc(Cl)cc(N3CCC4(CCC(CC(=O)O)CC4)CC3)c2O1 [Example 11] | 2.85 µM |
| O=C(O)CC1CCC2(CC1)CCN(c1cc(F)ccc1C(F)F)CC2 [Example 12] | 2.42 µM |
| Cc1ccc(C#N)c(N2CCC3(CCC(CC(=O)O)CC3)CC2)c1 [Example 13] | 2.14 µM |
| COc1ccc(Cl)cc1N1CCC2(CCC(CC(=O)O)CC2)CC1 [Example 14] | 3.1 µM |
| COc1ccc(C(F)(F)F)cc1N1CCC2(CCC(CC(=O)O)CC2)CC1 [Example 15] | 2.35 µM |
| O=C(O)CC1CCC2(CC1)CCN(c1cc(C(F)(F)F)ccc1F)CC2 [Example 16] | 0.652 µM |
| N#Cc1ccc(F)cc1N1CCC2(CCC(CC(=O)O)CC2)CC1 [Example 17] | 2.36 µM |
| CC(C)Oc1ccc(Cl)c(N2CCC3(CCC(CC(=O)O)CC3)CC2)c1 [Example 18] | 0.53 µM |
| Cc1cc(C)cc(N2CCC3(CCC(CC(=O)O)CC3)CC2)c1 [Example 19] | 0.948 µM |
| CCC(=O)c1ccc(F)c(N2CCC3(CCC(CC(=O)O)CC3)CC2)c1 [Example 20] | 1.66 µM |
| O=C(O)CC1CCC2(CC1)CCN(c1cc(C(F)(F)F)ccc1C(F)(F)F)CC2 [Example 21] | 3.27 µM |

| SMILES | EC50 |
| --- | --- |
| O=C(O)CC1CCC2(CC1)CCN(c1cc(C(F)F)cc(C(F)F)c1)CC2 [Example 22] | 3.01 µM |
| CC(C)(C)c1cc(N2CCC3(CCC(CC(=O)O)CC3)CC2)cc(C(F)(F)F)c1 [Example 23] | 3.75 µM |
| CC(C)c1cc(C#N)cc(N2CCC3(CCC(CC(=O)O)CC3)CC2)c1 [Example 24] | 3.46 µM |
| N#Cc1cc(SC(F)(F)F)cc(N2CCC3(CCC(CC(=O)O)CC3)CC2)c1 [Example 25] | 1.15 µM |
| CSc1nc(N2CCC3(CCC(CC(=O)O)CC3)CC2)cc(C(F)(F)F)n1 [Example 26] | 8.3 µM |
| O=C(O)CC1CCC2(CC1)CCN(c1cc(C(F)F)cc(C(F)F)n1)CC2 [Example 27] | 2.99 µM |
| Cc1cc(F)cc(N2CCC3(CCC(CC(=O)O)CC3)CC2)c1 [Example 28] | 3.04 µM |
| O=C(O)CC1CCC2(CC1)CCN(c1cc(F)cc(Cl)c1)CC2 [Example 29] | 1.79 µM |
| O=C(O)CC1CCC2(CC1)CCN(c1cc(Cl)cc(Cl)c1)CC2 [Example 30] | 0.878 µM |
| O=C(O)CC1CCC2(CC1)CCN(c1cc(F)cc(C(F)(F)F)c1)CC2 [Example 31] | 1.22 µM |
| O=C(O)CC1CCC2(CC1)CCN(c1cc(C(F)(F)F)cc(C(F)(F)F)c1)CC2 [Example 32] | 2.15 µM |
| O=C(O)CC1CCC2(CC1)CCN(c1cc(C(F)(F)F)ccn1)CC2 [Example 33] | 3.06 µM |
| Cc1cc(N2CCC3(CCC(CC(=O)O)CC3)CC2)cc(C(F)(F)F)c1 [Example 34] | 0.671 µM |
| N#Cc1ccc(OC(F)(F)F)cc1N1CCC2(CCC(CC(=O)O)CC2)CC1 [Example 35] | 0.431 µM |
| O=C(O)CC1CCC2(CC1)CCN(c1cc(Cl)cc(C(F)(F)F)c1)CC2 [Example 36] | 0.832 µM |
| Cc1cc(F)c(Cl)c(N2CCC3(CCC(CC(=O)O)CC3)CC2)c1 [Example 37] | 2.17 µM |
| O=C(O)CC1CCC2(CC1)CCN(c1cc(F)cc(Cl)c1F)CC2 [Example 38] | 2.15 µM |
| O=C(O)CC1CCC2(CC1)CCN(c1cc(Cl)cc(F)c1F)CC2 [Example 39] | 1.8 µM |
| Cc1cc(Cl)cc(N2CCC3(CCC(CC(=O)O)CC3)CC2)c1C#N [Example 40] | 2.54 µM |
| CSc1ccc(OC(F)(F)F)cc1N1CCC2(CCC(CC(=O)O)CC2)CC1 [Example 41] | 1.69 µM |
| Cc1ccc(C(F)(F)F)cc1N1CCC2(CCC(CC(=O)O)CC2)CC1 [Example 42] | 0.749 µM |
| Cc1cc(C)c(Cl)c(N2CCC3(CCC(CC(=O)O)CC3)CC2)c1 [Example 43] | 2.52 µM |
| CCc1cc(CC)cc(N2CCC3(CCC(CC(=O)O)CC3)CC2)c1 [Example 44] | 2.58 µM |
| Cc1cc(Cl)cc(N2CCC3(CCC(CC(=O)O)CC3)CC2)c1 [Example 45] | 1.17 µM |
| CCc1cc(C)cc(N2CCC3(CCC(CC(=O)O)CC3)CC2)c1 [Example 46] | 1.29 µM |
| O=C(O)CC1CCC2(CC1)CCN(c1cc(OC3CCC3)ccc1Cl)CC2 [Example 47] | 0.33 µM |
| Cc1cc(OC(F)(F)F)cc(N2CCC3(CCC(CC(=O)O)CC3)CC2)c1 [Example 48] | 0.377 µM |

Same assay, conditions: at 8300 nM; 100% activation defined by reference compound of U.S. Pat. No. 8,367,708

| SMILES | Human GPR120 % activation |
| --- | --- |
| CSc1nc(N2CCC3(CCC(CC(=O)O)CC3)CC2)cc(C(F)(F)F)n1 [Example 26] | 62% |
